Experimental data reported in ChEMBL document CHEMBL1201862, “PubChem BioAssay data set” (2004).
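Interpolation was linear, between the two tested concentrations surrounding the appropriate level; five concentrations were tested over 48 hours in 96-well plates. GI50 = concentration required for 50% inhibition of growth.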 Calls of active or inactive are those of the source. No stated cut-off is given here; in the data, active = GI50 up to about 1.1 µM and inactive = higher.

Experiments:
Assay in all cases: DTP human tumour cell line panel, 48 h
DLD-1 = system: DLD-1
XF498 = system: XF498
RXF 631 = system: RXF 631
LXFL 529 = system: LXFL 529
PC-3 = system: PC-3
MDA-N = system: MDA-N
BT-549 = system: BT-549
DU-145 = system: DU-145
Hs-578T = system: Hs-578T

Measured: GI50

Cn1c(CCC#N)nc2ccc(Br)cc2c1=O
inactive: DLD-1 > 100 µM | XF498 > 100 µM | RXF 631 > 100 µM | LXFL 529 > 100 µM

CCCCC(C(=O)CCC(=O)Nc1ccc(Cl)cc1)C(=O)C(C)C (stereo unspecified)
inactive: DLD-1 > 100 µM | XF498 > 100 µM | RXF 631 > 100 µM | LXFL 529 92.7 µM

O=S1(=O)OCCOS(=O)(=O)C1I
inactive: DLD-1 > 100 µM | XF498 > 100 µM | RXF 631 > 100 µM | LXFL 529 > 100 µM

Cc1cc(O)c2c(c1)C(O)(c1ccc3c(c1O)C(=O)c1c(O)cc(C)cc1C3(O)C1OC(CO)C(O)C(O)C1O)c1cccc(O)c1C2=O (stereo unspecified)
inactive: DLD-1 11.5 µM | XF498 5.08 µM | RXF 631 16 µM | LXFL 529 11.9 µM

Cc1cccc(C)c1NC(=O)C(=O)C1C(=O)NC(=O)NC1=O
inactive: DLD-1 > 100 µM | XF498 > 100 µM | RXF 631 > 100 µM | LXFL 529 > 100 µM

CCCNCc1nc2ccc(Br)cc2c(=O)n1CCC
inactive: DLD-1 8.09 µM | XF498 16.9 µM | RXF 631 7.05 µM | LXFL 529 12.6 µM

CC(=O)/C(C)=N/NC(=O)c1ccccc1O
inactive: PC-3 > 100 µM | MDA-N > 100 µM | DLD-1 > 10 µM | XF498 > 10 µM | BT-549 > 100 µM | DU-145 > 100 µM | RXF 631 > 10 µM | Hs-578T > 100 µM | LXFL 529 > 10 µM

CN1OC2OC(=O)OC2[C@H]1[C@H]1O[C@H](c2ccccc2)OC1(C)c1cc(OC(=O)c2ccccc2)ccc1OC(=O)c1ccccc1 (stereo partly specified)
inactive: DLD-1 > 50 µM | XF498 > 50 µM | RXF 631 > 50 µM | LXFL 529 > 50 µM

CC(C)c1ccc(C(c2ccc(OCC(=O)O)cc2)c2ccc(C(C)C)cc(=O)c2O)c(O)c(=O)c1
inactive: DLD-1 3.48 µM | XF498 2.63 µM | RXF 631 5.08 µM | LXFL 529 4.5 µM
